Publication PMC12750388, “Coumarin-1,2,3-Triazole Conjugates as Molecular Scaffolds for the Selective Induction of ROS-Driven Apoptosis in Cancer Cells in the Development of Pyruvate Kinase M2 Inhibitors” (ACS Omega, 2025)
“And” between values parts separate entries of the source, which are not always exact repeats. Equal values may be shown once.

Experiments:
SCC-4 = experiment: MTT cell viability assay, SCC-4; type: cell-based, human
Method: (§1) The viability of SCC cell lines and primary human fibroblast cells was evaluated using the MTT assay to determine half maximal inhibitory concentration (IC50). Briefly, cells were grown in triplicate in 96-well plates (5 × 10^3 cells/well) until confluence. Then the medium was removed, fresh medium was added, and the cells were returned to the incubator in the presence of different compounds. DMSO at the same concentrations was used as a 100% cell viability control. After 48 h, cells were incubated with 5 mg/mL MTT reagent (3-(4,5-dimethyl-2-thiazolyl)-2,5-diphenyl-2-H-tetrazolium bromide) (Sigma-Aldrich Co., St. Louis, MO, USA) for 3.5 h. After that, formazan crystals were dissolved in MTT solvent solution (DMSO/methanol 1:1 v/v), and the absorbance at 560 nm was evaluated using an EPOCH microplate spectrophotometer (BioTek Instruments, Winooski, VT, USA) with the background absorbance at 670 nm subtracted. Each of the 12 compounds (7a–7l) was tested at six different concentrations, ranging from 6.25 to 200 μM in cancer and normal cell lines. Control (carboplatin) was tested at six different concentrations ranging from 25 μM to 800 μM in cancer cells and from 50 μM to 1600 μM in normal cells.
(§2) Half-maximal inhibitory concentration (IC50) values were obtained from the MTT assay of at least three independent replicates through nonlinear regression analysis using GraphPad Prism 5.0 software (Intuitive Software for Science, San Diego, CA, USA). Data were presented as means ± standard deviation (SD). A log dose–response curve (inhibitor vs response) using the least-squares method was used to determine the IC50 and SD from the data. The selectivity index (SI) was calculated as the ratio between the IC50 in normal cells and the IC50 in cancer cells, obtained by dividing the IC50 of normal cells by the IC50 of cancer cells.

SCC-25 = experiment: MTT cell viability assay, SCC-25; type: cell-based, human
Method: as §1, §2

SCC-9 cells [1] = experiment: ROS-Glo H2O2 assay; type: cell-based, human; conditions: SCC-9, 2 × IC50, 12 and 24 h
Method: The production of reactive oxygen species (ROS) was assessed by the detection of hydrogen peroxide (H2O2) using the ROS-Glo H2O2 assay kit (Promega Corporation, Madison, WI, USA; G8820). […] A plate with wells without cells was used as a control. Cells and cell-free wells remained in treatment at times of interest, and 2 h before completion of the times, well volumes were removed to reduce to 40 μL per well. Then the positive control of menadione (Sigma-Aldrich Co., St. Louis, MO, USA), a polycyclic aromatic ketone based on 1,4-naphthoquinone, was used to treat its respective well, and H2O2 substrate from the kit was added for all treatments, followed by the incubation of the plate for the remaining 2 h. Then the detection solution was added, and the plates remained at room temperature for 20 min, following the reading in the TD 20/20 luminometer (Turner Designs, Sunnyvale, CA, USA). The reading of bioluminescence detected is indicated as arbitrary units (a.u.). Additionally, the cell viability was assessed through pretreatment of cells with 10 mM N-acetyl-L-cysteine (NAC) (Sigma-Aldrich Co., St. Louis, MO, USA) for 2 h. […] At the end of the time, the MTT cell viability assay was performed.

SCC-9 cells [2] = experiment: Videomicroscopy by time-lapse; type: cell-based, human; conditions: SCC-9, 2 × IC50 (24.58 μM), up to 48 h
Method: Cells were maintained in a controlled chamber containing 5% CO2 and 37 °C. Images were captured every minute and integrated using Framelapse software (Neximo Laboratories, Uttar Pradesh, India).

PKM2 = target: T1, PKM2 (Homo sapiens, UniProt P14618); experiment: LDH-coupled Pyruvate Kinase M2 activity assay; type: biochemical
T1 construct: purchased Sigma-Aldrich Co., St. Louis, MO, USA
T1 sequence (P14618 whole entry): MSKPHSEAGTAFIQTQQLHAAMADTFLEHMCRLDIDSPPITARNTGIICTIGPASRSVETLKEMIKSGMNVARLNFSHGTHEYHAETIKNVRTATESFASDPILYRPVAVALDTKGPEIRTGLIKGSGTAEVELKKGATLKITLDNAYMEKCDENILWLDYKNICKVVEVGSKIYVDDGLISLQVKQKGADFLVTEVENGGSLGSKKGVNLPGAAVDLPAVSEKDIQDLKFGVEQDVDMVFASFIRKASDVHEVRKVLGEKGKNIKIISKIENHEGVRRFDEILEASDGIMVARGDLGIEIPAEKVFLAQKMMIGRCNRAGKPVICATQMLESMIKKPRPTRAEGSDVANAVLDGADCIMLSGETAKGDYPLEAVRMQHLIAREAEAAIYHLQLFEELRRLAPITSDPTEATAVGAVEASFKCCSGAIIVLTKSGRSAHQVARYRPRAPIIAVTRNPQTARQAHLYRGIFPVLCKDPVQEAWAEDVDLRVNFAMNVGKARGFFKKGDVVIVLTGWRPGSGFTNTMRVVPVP
Method: LDH-coupled Pyruvate Kinase M2 (PKM2) activity assay was performed according to published protocols. For the assay, a pH 7.5 buffer solution composed of 50 mM Tris, 100 mM KCl, and 10 mM MgCl2 was prepared, to which 30 ng of human recombinant PKM2 (Sigma-Aldrich Co., St. Louis, MO, USA), 0.6 mM adenosine diphosphate (ADP), 0.5 mM phosphoenolpyruvate (PEP), 180 μM NADH, 10 μM fructose 1,6-bisphosphate (FBP), and 8 units of LDH were added. PEP was added only right before measurement to start the reaction. The change in absorbance at 340 nm due to oxidation of NADH by LDH was measured from 0 to 30 min using an EPOCH microplate spectrophotometer (BioTek Instruments, Winooski, VT, USA). The activity of PK was defined as % in relation to the indicated control.

O=C1C=C(OCc2cn(CCCOc3cc(=O)oc4ccccc34)nn2)C(=O)c2ccccc21 [Compound 7f, 2-((1-(3-((2-Oxo-2H-chromen-4-yl)oxy)propyl)-1H-1,2,3-triazol-4-yl)methoxy)naphthalene-1,4-dione]
IC50 (SCC-4; Homo sapiens, SCC-4, MTT, 48 h): 7.93 µM | SI SCC-4 (SCC-4; IC50 human gingival fibroblast / IC50 SCC-4): 2.87 | IC50 (SCC-25; Homo sapiens, SCC-25, MTT, 48 h): 11.1 µM | SI SCC-25 (SCC-25; IC50 human gingival fibroblast / IC50 SCC-25): 2.05 | production of hydrogen peroxide (H2O2) / ROS (SCC-9 cells [1]): significant increase in ROS after 12 and 24 h | proliferation and morphology by video microscopy (SCC-9 cells [2]): pronounced inhibition of proliferation | PKM2 % of activity relative to control (PKM2; 0.8 µM 7f, experimental replicates 1-5, LDH-coupled assay, vs DMSO): 96.14% and 81.36% and 72.11% and 97.25% and 76.4557% | PKM2 % of activity relative to control (PKM2; 4 µM 7f, experimental replicates 1-5, LDH-coupled assay, vs DMSO): 88.82% and 107.0205% and 91.86% and 99.18% | remaining activity at 4 µM (PKM2; 4 µM 7f, experimental replicates 1-5, LDH-coupled assay, vs DMSO, read-out: PKM2 % of activity relative to control): 96.2% | PKM2 % of activity relative to control (PKM2; 20 µM 7f, experimental replicates 1-5, LDH-coupled assay, vs DMSO): 87.42% and 68.0203% and 47.4026% and 85.71% and 68.03% | PKM2 % of activity relative to control (PKM2; 100 µM 7f, experimental replicates 1-5, LDH-coupled assay, vs DMSO): 42.39% and 13.86% and 46.13% and 34.17% and 45.14% | IC50 (PKM2; LDH-coupled assay, 0.8 μM to 100 μM, 30 min): 55.1 µM
